Results: patent US20030130200A1, “Small peptides and methods for treatment of asthma and inflammation” (Hisatek, LLC, priority 1997, published 2003)
Where no end group is shown, it is not given here. The star is where a group is joined. For = O=C*

Legend:
mast cells = test: Rat skin model for inhibition of mast cell degranulation induced by Compound 48/80 (area of capillary permeability/bluing); format: in vivo, rat (male Sprague-Dawley)
From the text: The Rat Skin Model for Determination of Inhibition of Mast Cell Degranulation
Allergy induced asthma results from exposure of substances (allergens) to which an organism has become hypersensitized. Exposure to allergen results in degranulation of mast cells in the lung, releasing leukotrienes and histamines. […] Respiratory symptoms resulting from such an exposure range from mild (itching and sneezing) to potentially fatal (asthma), including in extreme chronic cases death by anaphylaxis.
In this model, the blood plasma of the experimental rat is labeled with the dye trypan blue. This soluble dye is carried in the bloodstream as a passive marker of plasma itself, and is excluded from live cells. Intact blood vessels including the capillary system, retain this dye under normal circumstances. A compound, which induces degranulation of mast cells (resulting in leukotriene and histamine release), is injected into the skin to simulate allergen-induced degranulation. In these experiments, Compound 48/80 was used for this purpose. In the events following leukotriene and histamine release, capillary permeability is increased, and plasma, dyed blue, leaks from capillaries and dyes the skin surrounding the injection site blue. The area of bluing is a measure of the amount of Compound 48/80 injected.
A compound can be tested for “anti-leukotriene” and/or “anti-histamine” activity by mixing it with Compound 48/80 prior to injection.
The rat skin model was undertaken and validated. Various peptides were tested at a predetermined dose for anti-leukotriene and/or anti-histamine activity. The dose selected allowed a general comparison to f-Met-Leu-Phe, which was standard compound for comparison.
A “dose response” titration was performed for some compounds and compared with the standard compound. Observing serial decreases in the size areas of capillary permeability using serially smaller doses of the putative inhibitory compound validates the inhibition of leukotriene and/or histamine release observed in the initial predetermined dose test.
Reagents were obtained from Sigma or Aldrich, with the exception of ketamine, a veterinary anaesthetic that was obtained from various veterinary suppliers. The rats used were male Sprague-Dawley breed, 220-240 g at time of purchase from B&K International.
For the rat skin reaction, rats were anaesthetized with 0.25 ml 10 mg/ml ketamine. 1.0 ml trypan blue in saline (sterile filtered) was administered in a tail vein, and the back of the rat was shaved. Four intradermal injection sites per rat were used for test and control injections.
Compound 48/80 was prepared as a 1.5 mg/ml stock solution in saline. […] Serial dilutions in saline to working levels were prepared just prior to injection of each rat.
Peptides were prepared as a 23 mM stock solution in DMSO, and stored at −20° C. between experiments. At the time of use, the frozen stock solutions were thawed, and appropriate aliquots added to dilutions of Compound 48/80, along with appropriate amounts of DMSO, to result in the ratio of 5 μl DMSO to 0.1 ml aqueous Compound 48/80.
For injections, 0.1 ml Compound […], +/− test compounds were injected intradermally into anaesthetized, dyed, and shaved rats. Following a 15 minute incubation, the rats were sacrificed by cervical dislocation and the back skin was evulsed and placed on a light box. An image of the backlit skin was digitized using a CCD video capture camera and compatible hardware/software. The digitized image was analyzed using a scientific graphics analysis software package, and the areas of capillary permeability (bluing) were integrated and digital values were obtained for further analysis.
A dose response curve was generated using Compound 48/80 at various doses from ca. 0.01 μg through ca 15 μg. […] A dose of 0.15 μg of Compound 48/80 was selected for conducting further tests.
A dose response curve was prepared for the standard compound, f-Met-Leu-Phe, using the selected dose of 0.15 μg Compound 48/80. […]

[1] = test system: type II collagen arthritis; test: Induced type II collagen arthritis mouse model; format: in vivo, mouse (DBA/1 male); details: HK-X TC or footpad, 0.4 or 4 mg/kg for 20 days; x-ray and histology
From the text: A mouse model is used to evaluate the effect of the compounds of the present invention on the histological, radiographic and clinical appearance of induced type II collagen arthritis. Mice: DBA/1(2) male mice weighing 25 gms (Jackson Laboratories, Bar Harbor, Me. or B&K Universal, Kent Wash.) are used for this work. This strain of mouse is susceptible to CIA by the injection of heterologous type II collagen. Bovine Collagen (BC), Complete Freund's Adjuvant (CFA) and Incomplete Freund's Adjuvant (ICFA) can be obtained from Sigma Chemical. Antigen for immunization is processed in 0.1 M acetic acid and formulated with CFA or ICFA. […] The degree of cellularity and areas of inflammation are quantified by using digitization of histological photomicrographs and applying standard area and point counting techniques as described above. […] The average area of soft tissue (pannus) of the joint is determined by analysis of computer digitized radiographs, along with changes in density of the adjacent hard tissues by comparison with internal standards included with each radiograph. […] The significance of the differences in density and area for control and experimental mice is assessed using paired T-tests at each time point. […] Swelling of hind paws is also quantitated by measuring the thickness of the ankle from the medial to the lateral malledus with a constant tension caliper. […]

Substance: f-Met-Leu-Phe-Phe (For-MLFF) [Example 9]
- Inhibition of degranulation induced by Compound 48/80, dose response curve (mast cells; doses of 0 to about 230 nM peptide, 0.15 μg Compound 48/80 (FIG. 2, FIG. 3)): Surprisingly remarkable inhibition of degranulation induced by Compound 48/80 was clearly shown
- % Degranulation (mast cells; percent mast cell degranulation produced by 48/80, 100 nanomoles peptide, 0.15 μg Compound 48/80): 1-3%
- Degree of arthritis [1]: reduce the degree of arthritis
